Measured values taken from ChEMBL document CHEMBL1128075, “Chemical modification and structure-activity relationships of pyripyropenes; potent, bioavailable inhibitor of acyl-CoA: Cholesterol O-acyltransferase (ACAT)” (Bioorg Med Chem Lett, 1995).

Each molecule was assayed against T1, Sterol O-acyltransferase 2 (Rattus norvegicus, UniProt Q7TQM4) (assay: Inhibitory activity against acyl-CoA:cholesterol O-acyltransferase (ACAT)).
T1 sequence (Q7TQM4 whole entry): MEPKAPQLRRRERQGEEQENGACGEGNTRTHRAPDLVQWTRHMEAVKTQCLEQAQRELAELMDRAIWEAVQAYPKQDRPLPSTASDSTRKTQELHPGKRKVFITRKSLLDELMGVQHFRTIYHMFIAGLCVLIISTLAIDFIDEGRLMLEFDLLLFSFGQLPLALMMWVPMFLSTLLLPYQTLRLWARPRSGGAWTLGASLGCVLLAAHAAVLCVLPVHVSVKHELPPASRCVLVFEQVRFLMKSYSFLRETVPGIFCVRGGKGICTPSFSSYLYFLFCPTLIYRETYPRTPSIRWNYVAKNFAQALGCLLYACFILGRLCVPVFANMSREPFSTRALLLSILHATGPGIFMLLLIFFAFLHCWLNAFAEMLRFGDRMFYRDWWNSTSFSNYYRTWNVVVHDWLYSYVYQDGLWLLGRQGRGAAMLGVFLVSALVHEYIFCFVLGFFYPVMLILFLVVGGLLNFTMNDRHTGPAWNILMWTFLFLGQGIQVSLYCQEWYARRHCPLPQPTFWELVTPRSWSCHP

Question: Which IC50 does the source give for `CCCC(N)C(=O)O[C@H]1c2c(cc(-c3cccnc3)oc2=O)O[C@@]2(C)C1[C@@]1(C)CC[C@H](OC(C)=O)[C@@](C)(COC(C)=O)C1C[C@@H]2OC(C)=O` (stereo partly specified) here?
Answer: 16000 nM

Question: How did the IC50 turn out when `CCCC(N)C(=O)O[C@H]1CC[C@@]2(C)C(C[C@H](OC(C)=O)[C@@]3(C)Oc4cc(-c5cccnc5)oc(=O)c4[C@H](O)C23)[C@]1(C)COC(C)=O` (stereo partly specified) was run?
Answer: 620 nM

Question: For `CCCC(N)C(=O)O[C@H]1CC2[C@](C)(CC[C@@H]3OC(=O)OC[C@@]23C)C2[C@@H](O)c3c(cc(-c4cccnc4)oc3=O)O[C@@]21C` (stereo partly specified), which IC50 is on record?
Answer: 2500 nM

Question: For `CCCCO[C@H]1c2c(cc(-c3cccnc3)oc2=O)O[C@@]2(C)C1[C@@]1(C)CC[C@H](OC(C)=O)[C@@](C)(COC(C)=O)C1C[C@@H]2OC(C)=O` (stereo partly specified), which IC50 is on record?
Answer: 2400 nM

Question: `CCCC(N)C(=O)O[C@H]1CC2[C@](C)(CC[C@H](O)[C@@]2(C)CO)C2[C@@H](O)c3c(cc(-c4cccnc4)oc3=O)O[C@@]21C` (stereo partly specified) was tested. Which IC50 did it give?
Answer: 79000 nM

Question: For `CC(=O)O[C@H]1CC[C@@]2(C)C(C[C@H](OC(C)=O)[C@@]3(C)Oc4cc(-c5cccnc5)oc(=O)c4[C@H](O)C23)[C@]1(C)COCC(C)C` (stereo partly specified), which IC50 is on record?
Answer: 5900 nM

Question: `CCCC(N)C(=O)O[C@H]1CC2[C@](C)(CC[C@@H]3OC4(CCCCC4)OC[C@@]23C)C2[C@@H](O)c3c(cc(-c4cccnc4)oc3=O)O[C@@]21C` (stereo partly specified) was tested. Which IC50 did it give?
Answer: 39 nM

Question: Which IC50 does the source give for `CCCO[C@H]1c2c(cc(-c3cccnc3)oc2=O)O[C@@]2(C)C1[C@@]1(C)CC[C@H](OC(C)=O)[C@@](C)(COC(C)=O)C1C[C@@H]2OC(C)=O` (stereo partly specified) here?
Answer: 23000 nM

Question: How did the IC50 turn out when `CCCCOC[C@@]1(C)C2C[C@H](OC(C)=O)[C@@]3(C)Oc4cc(-c5cccnc5)oc(=O)c4[C@H](O)C3[C@@]2(C)CC[C@@H]1OC(C)=O` (stereo partly specified) was run?
Answer: 4200 nM

Question: For `CCCC(N)C(=O)O[C@H]1CC2[C@](C)(CC[C@@H]3OC(c4ccccc4)OC[C@@]23C)C2[C@@H](O)c3c(cc(-c4cccnc4)oc3=O)O[C@@]21C` (stereo partly specified), which IC50 is on record?
Answer: 6 nM

Question: Which IC50 does the source give for `CC(=O)OC[C@@]1(C)C2C[C@H](OCC(C)C)[C@@]3(C)Oc4cc(-c5cccnc5)oc(=O)c4[C@H](O)C3[C@@]2(C)CC[C@@H]1OC(C)=O` (stereo partly specified) here?
Answer: 130 nM

Question: `CC(=O)OC[C@@]1(C)C2C[C@H](OC(C)=O)[C@@]3(C)Oc4cc(-c5cccnc5)oc(=O)c4[C@H](O)C3[C@@]2(C)CC[C@@H]1OCC(C)C` (stereo partly specified) was tested. Which IC50 did it give?
Answer: 130 nM

Question: With `CCCC(N)C(=O)OC[C@@]1(C)C2C[C@H](OC(C)=O)[C@@]3(C)Oc4cc(-c5cccnc5)oc(=O)c4[C@H](O)C3[C@@]2(C)CC[C@@H]1OC(C)=O` (stereo partly specified) as the molecule, how does the IC50 read?
Answer: > 8000 nM

Question: How did the IC50 turn out when `CCCC(N)C(=O)O[C@H]1CC2[C@](C)(CC[C@@H]3OC(C)(c4ccccc4)OC[C@@]23C)C2[C@@H](O)c3c(cc(-c4cccnc4)oc3=O)O[C@@]21C` (stereo partly specified) was run?
Answer: 910 nM

Question: For `CCCC(N)C(=O)O[C@H]1CC2[C@](C)(CC[C@@H]3OC(CC)OC[C@@]23C)C2[C@@H](O)c3c(cc(-c4cccnc4)oc3=O)O[C@@]21C` (stereo partly specified), which IC50 is on record?
Answer: 33 nM

Question: With `CC(=O)OC[C@@]1(C)C2C[C@H](OC(C)=O)[C@@]3(C)Oc4cc(-c5cccnc5)oc(=O)c4C=C3[C@@]2(C)CC[C@@H]1OC(C)=O` (stereo partly specified) as the molecule, how does the IC50 read?
Answer: 5800 nM

Question: For `CCCC(N)C(=O)O[C@H]1CC2[C@](C)(CC[C@@H]3OC(C)(C)OC[C@@]23C)C2[C@@H](O)c3c(cc(-c4cccnc4)oc3=O)O[C@@]21C` (stereo partly specified), which IC50 is on record?
Answer: 86 nM

Question: How did the IC50 turn out when `CC(=O)OC[C@@]1(C)C2C[C@H](OC(C)=O)[C@@]3(C)Oc4cc(-c5ccc[n+]([O-])c5)oc(=O)c4[C@H](O)C3[C@@]2(C)CC[C@@H]1OC(C)=O` (stereo partly specified) was run?
Answer: 5800 nM

Question: How did the IC50 turn out when `CCCO[C@H]1CC[C@@]2(C)C(C[C@H](OC(C)=O)[C@@]3(C)Oc4cc(-c5cccnc5)oc(=O)c4[C@H](O)C23)[C@]1(C)COC(C)=O` (stereo partly specified) was run?
Answer: 140 nM

Question: Which IC50 does the source give for `CCCCO[C@H]1CC2[C@](C)(CC[C@H](OC(C)=O)[C@@]2(C)COC(C)=O)C2[C@@H](O)c3c(cc(-c4cccnc4)oc3=O)O[C@@]21C` (stereo partly specified) here?
Answer: 38 nM

Question: With `CCCO[C@H]1CC2[C@](C)(CC[C@H](OC(C)=O)[C@@]2(C)COC(C)=O)C2[C@@H](O)c3c(cc(-c4cccnc4)oc3=O)O[C@@]21C` (stereo partly specified) as the molecule, how does the IC50 read?
Answer: 67 nM

Question: For `CCCC(N)C(=O)O[C@H]1CC2[C@](C)(CC[C@@H]3OC(C)OC[C@@]23C)C2[C@@H](O)c3c(cc(-c4cccnc4)oc3=O)O[C@@]21C` (stereo partly specified), which IC50 is on record?
Answer: 25 nM

Question: For `CCCOC[C@@]1(C)C2C[C@H](OC(C)=O)[C@@]3(C)Oc4cc(-c5cccnc5)oc(=O)c4[C@H](O)C3[C@@]2(C)CC[C@@H]1OC(C)=O` (stereo partly specified), which IC50 is on record?
Answer: 270 nM

Question: How did the IC50 turn out when `CCCCO[C@H]1CC[C@@]2(C)C(C[C@H](OC(C)=O)[C@@]3(C)Oc4cc(-c5cccnc5)oc(=O)c4[C@H](O)C23)[C@]1(C)COC(C)=O` (stereo partly specified) was run?
Answer: 200 nM

Question: For `CCCC(N)C(=O)O[C@H]1CC2[C@](C)(CC[C@H](OC(C)=O)[C@@]2(C)COC(C)=O)C2[C@@H](O)c3c(cc(-c4cccnc4)oc3=O)O[C@@]21C` (stereo partly specified), which IC50 is on record?
Answer: 13 nM

Question: With `CC(=O)OCC1(C)C2C[C@H](OCc3ccccc3)[C@@]3(C)Oc4cc(-c5cccnc5)oc(=O)c4[C@H](O)C3[C@@]2(C)CC[C@@H]1OC(C)=O` (single isomer, unassigned) as the molecule, how does the IC50 read?
Answer: 7400 nM

Question: Which IC50 does the source give for `CC(=O)O[C@H]1CC2C3(C)COC(C)(C)O[C@H]3CC[C@]2(C)C2[C@@H](O)c3c(cc(-c4cccnc4)oc3=O)O[C@@]21C` (single isomer, unassigned) here?
Answer: 1200 nM

Question: With `CC(=O)O[C@H]1CC[C@@]2(C)C(C[C@H](OC(C)=O)[C@@]3(C)Oc4cc(-c5cccnc5)oc(=O)c4[C@H](O)C23)C1(C)COS(C)(=O)=O` (single isomer, unassigned) as the molecule, how does the IC50 read?
Answer: 19 nM

Question: How did the IC50 turn out when `CC(=O)O[C@H]1CC[C@@]2(C)C(C[C@H](OC(C)=O)[C@@]3(C)Oc4cc(-c5cccnc5)oc(=O)c4[C@H](O)C23)C1(C)COS(=O)(=O)c1ccccc1` (single isomer, unassigned) was run?
Answer: 110000 nM

Question: `CO[C@H]1c2c(cc(-c3cccnc3)oc2=O)O[C@@]2(C)C1[C@@]1(C)CC[C@H](OC(C)=O)C(C)(COC(C)=O)C1C[C@@H]2OC(C)=O` (single isomer, unassigned) was tested. Which IC50 did it give?
Answer: 38000 nM

Question: How did the IC50 turn out when `CC(=O)O[C@H]1CC2C3(C)COC(c4ccccc4)O[C@H]3CC[C@]2(C)C2[C@@H](O)c3c(cc(-c4cccnc4)oc3=O)O[C@@]21C` (single isomer, unassigned) was run?
Answer: 120 nM

Question: With `CC12COC(c3ccccc3)O[C@H]1CC[C@@]1(C)C2C[C@H](O)[C@@]2(C)Oc3cc(-c4cccnc4)oc(=O)c3[C@H](O)C12` (single isomer, unassigned) as the molecule, how does the IC50 read?
Answer: > 180000 nM

Question: With `CC1(CO)C2C[C@H](O)[C@@]3(C)Oc4cc(-c5cccnc5)oc(=O)c4[C@H](O)C3[C@@]2(C)CC[C@@H]1O` (single isomer, unassigned) as the molecule, how does the IC50 read?
Answer: > 220000 nM

Question: How did the IC50 turn out when `CC(=O)OCC1(C)C2C[C@H](OC(C)=O)[C@@]3(C)Oc4cc(-c5ccc[n+](C)c5)oc(=O)c4[C@H](O)C3[C@@]2(C)CC[C@@H]1OC(C)=O` (single isomer, unassigned) was run?
Answer: 2100 nM

Question: For `CC1(C)OCC2(C)C3C[C@H](O)[C@@]4(C)Oc5cc(-c6cccnc6)oc(=O)c5[C@H](O)C4[C@@]3(C)CC[C@@H]2O1` (single isomer, unassigned), which IC50 is on record?
Answer: > 200000 nM

Question: How did the IC50 turn out when `CC(=O)OCC1(C)C2C[C@H](OC(C)=O)[C@@]3(C)Oc4cc(-c5cccnc5)oc(=O)c4C(=O)C3[C@@]2(C)CC[C@@H]1OC(C)=O` (single isomer, unassigned) was run?
Answer: 2100 nM

Question: Which IC50 does the source give for `CC(=O)O[C@H]1CC2C(C)(CO)[C@@H](O)CC[C@]2(C)C2[C@@H](O)c3c(cc(-c4cccnc4)oc3=O)O[C@@]21C` (single isomer, unassigned) here?
Answer: 100000 nM

Question: How did the IC50 turn out when `CC(=O)OCC1(C)C2C[C@H](OS(C)(=O)=O)[C@@]3(C)Oc4cc(-c5cccnc5)oc(=O)c4[C@H](O)C3[C@@]2(C)CC[C@@H]1OC(C)=O` (single isomer, unassigned) was run?
Answer: 1800 nM

Question: How did the IC50 turn out when `CC(=O)OCC1(C)C2C[C@H](OC(C)=O)[C@@]3(C)Oc4cc(-c5cccnc5)oc(=O)c4[C@H](OC(C)=O)C3[C@@]2(C)CC[C@@H]1OC(C)=O` (single isomer, unassigned) was run?
Answer: 5100 nM

Question: With `CC(=O)OCC1(C)C2C[C@H](OS(=O)(=O)c3ccccc3)[C@@]3(C)Oc4cc(-c5cccnc5)oc(=O)c4[C@H](O)C3[C@@]2(C)CC[C@@H]1OC(C)=O` (single isomer, unassigned) as the molecule, how does the IC50 read?
Answer: 3100 nM

Each molecule was assayed on Cricetinae gen. sp. (assay: Effective dose for inhibition of [3H]- cholesterol absorption in a hamster model.).
Type: functional, Cricetulus griseus

Question: Which ED50 does the source give for `CC(=O)O[C@H]1CC[C@@]2(C)C(C[C@H](OC(C)=O)[C@@]3(C)Oc4cc(-c5cccnc5)oc(=O)c4[C@H](O)C23)C1(C)COS(C)(=O)=O` (single isomer, unassigned) here?
Answer: 10 mg/kg
